Test results: article PMC8371902, “Phase 1 study of M2698, a p70S6K/AKT dual inhibitor, in patients with advanced cancer” (Journal of Hematology & Oncology, 2021)

Assay: Plasma pharmacokinetics of M2698, non-compartmental
Assay type: in vivo, human
Protocol: Plasma PK parameters on days 1 and 15 were calculated using non-compartmental methods.

[1] = day 1 single dose, monotherapy 15 mg, n=3
[2] = day 1 single dose, monotherapy 30 mg, n=3
[3] = day 1 single dose, monotherapy 60 mg, n=6
[4] = day 1 single dose, monotherapy 75 mg, n=4
[5] = day 1 single dose, monotherapy 110 mg, n=3
[6] = day 1 single dose, monotherapy 160 mg, n=5
[7] = day 1 single dose, monotherapy 200 mg, n=3
[8] = day 1 single dose, monotherapy 240 mg, n=9
[9] = day 1 single dose, monotherapy 320 mg, n=7
[10] = day 1 single dose, monotherapy 380 mg, n=4
[11] = day 15, combination with tamoxifen, M2698 80 mg, n=2
[12] = day 15, combination with tamoxifen, M2698 160 mg, n=5
[13] = day 15, combination with tamoxifen, M2698 200 mg, n=6
[14] = day 15, combination with tamoxifen, M2698 240 mg (intermittent regimen), n=4
[15] = day 15, combination with trastuzumab, M2698 80 mg, n=3
[16] = day 15, combination with trastuzumab, M2698 160 mg, n=7
[17] = day 15, monotherapy 110 mg, n=3
[18] = day 15, monotherapy 160 mg, n=5
[19] = day 15, monotherapy 200 mg, n=3
[20] = day 15, monotherapy 240 mg, n=7
[21] = day 15, monotherapy 320 mg, n=6
[22] = day 15, monotherapy 380 mg, n=2

## NC(=O)c1cccc2c(N[C@H](CN3CCC3)c3ccc(Cl)c(C(F)(F)F)c3)ncnc12 [M2698]
[1]
  AUC0–24, Geo mean (GeoCV%): 759 (67.2) ng∙h/mL
  Cmax, GeoMean (GeoCV%): 53.0 (91.1) ng/mL
  tmax, median (range): 3.08 (2.07–5.00) hours
[2]
  AUC0–24, Geo mean (GeoCV%): 1480 (52.9) ng∙h/mL
  Cmax, GeoMean (GeoCV%): 87.3 (55.9) ng/mL
  tmax, median (range): 4.00 (3.97–5.17) hours
[3]
  AUC0–24, Geo mean (GeoCV%): 2730 (36.3) ng∙h/mL
  Cmax, GeoMean (GeoCV%): 177 (38.3) ng/mL
  tmax, median (range): 4.08 (2.05–5.00) hours
[4]
  AUC0–24, Geo mean (GeoCV%): 4370 (85.2) ng∙h/mL
  Cmax, GeoMean (GeoCV%): 269 (114.4) ng/mL
  tmax, median (range): 4.83 (2.98–9.50) hours
[5]
  AUC0–24, Geo mean (GeoCV%): 4200 (21.0) ng∙h/mL
  Cmax, GeoMean (GeoCV%): 246 (21.7) ng/mL
  tmax, median (range): 6.08 (5.98–24.3) hours
[6]
  AUC0–24, Geo mean (GeoCV%): 8650 (49.8) ng∙h/mL
  Cmax, GeoMean (GeoCV%): 543 (65.3) ng/mL
  tmax, median (range): 4.05 (2.15–5.23) hours
[7]
  AUC0–24, Geo mean (GeoCV%): 8180 (102.8) ng∙h/mL
  Cmax, GeoMean (GeoCV%): 472 (110.1) ng/mL
  tmax, median (range): 4.60 (4.07–5.02) hours
Day 1 single dose, monotherapy 240 mg, n=8 for AUC
  AUC0–24, Geo mean (GeoCV%): 9200 (74.5) ng∙h/mL
[8]
  Cmax, GeoMean (GeoCV%): 590 (81.4) ng/mL
  tmax, median (range): 6.25 (4.00–24.3) hours
Day 1 single dose, monotherapy 320 mg, n=6 for AUC
  AUC0–24, Geo mean (GeoCV%): 15200 (104.0) ng∙h/mL
[9]
  Cmax, GeoMean (GeoCV%): 802 (112.0) ng/mL
  tmax, median (range): 4.73 (4.00–24.1) hours
Day 1 single dose, monotherapy 380 mg, n=2 for AUC
  AUC0–24, Geo mean (GeoCV%): 16500 (36.6) ng∙h/mL
[10]
  Cmax, GeoMean (GeoCV%): 1320 (55.0) ng/mL
  tmax, median (range): 6.28 (4.12–9.52) hours
[11]
  AUC0–τ, Geo mean (GeoCV%): 16,000 (44.7) ng∙h/mL
  Accumulation ratio (Cmax), Geo mean (GeoCV%): 2.31 (20.6)
  Cmax, GeoMean (GeoCV%): 819 (50.9) ng/mL
  tmax, median (range): 4.5 (4.00–5.00) hours
[12]
  AUC0–τ, Geo mean (GeoCV%): 22,000 (42.9) ng∙h/mL
  Accumulation ratio (Cmax), Geo mean (GeoCV%): 1.98 (26.6)
  Cmax, GeoMean (GeoCV%): 1270 (48.3) ng/mL
  tmax, median (range): 3.33 (2.95–5.58) hours
[13]
  AUC0–τ, Geo mean (GeoCV%): 27,000 (29.3) ng∙h/mL
  Accumulation ratio (Cmax), Geo mean (GeoCV%): 3.47 (65.7)
  Cmax, GeoMean (GeoCV%): 1380 (31.3) ng/mL
  tmax, median (range): 3.98 (3.07–10.0) hours
[14]
  AUC0–τ, Geo mean (GeoCV%): 20,600 (41.7) ng∙h/mL
  Accumulation ratio (Cmax), Geo mean (GeoCV%): 1.7 (40.9)
  Cmax, GeoMean (GeoCV%): 1110 (39.9) ng/mL
  tmax, median (range): 3.15 (2.13–4.00) hours
[15]
  AUC0–τ, Geo mean (GeoCV%): 7400 (34.3) ng∙h/mL
  Accumulation ratio (Cmax), Geo mean (GeoCV%): 2.00 (26.1)
  Cmax, GeoMean (GeoCV%): 405 (23.7) ng/mL
  tmax, median (range): 3.07 (2.03–5.58) hours
[16]
  AUC0–τ, Geo mean (GeoCV%): 47,200 (49.3) ng∙h/mL
  Accumulation ratio (Cmax), Geo mean (GeoCV%): 2.73 (31.5)
  Cmax, GeoMean (GeoCV%): 2560 (52.8) ng/mL
  tmax, median (range): 5.88 (3.05–8.08) hours
Day 15, monotherapy 15 mg, n=3
  AUC0–τ, Geo mean (GeoCV%): 2540 (6.0) ng∙h/mL
  Accumulation ratio (Cmax), Geo mean (GeoCV%): 2.57 (73.6)
  Cmax, GeoMean (GeoCV%): 136 (16.8) ng/mL
  tmax, median (range): 3.00 (2.97–7.50) hours
Day 15, monotherapy 30 mg, n=3
  AUC0–τ, Geo mean (GeoCV%): 5410 (17.8) ng∙h/mL
  Accumulation ratio (Cmax), Geo mean (GeoCV%): 3.19 (41.2)
  Cmax, GeoMean (GeoCV%): 279 (14.5) ng/mL
  tmax, median (range): 4.30 (1.93–6.02) hours
Day 15, monotherapy 60 mg, n=5
  AUC0–τ, Geo mean (GeoCV%): 10,000 (47.7) ng∙h/mL
  Accumulation ratio (Cmax), Geo mean (GeoCV%): 3.03 (60.4)
  Cmax, GeoMean (GeoCV%): 566 (48.5) ng/mL
  tmax, median (range): 5.07 (3.03–7.62) hours
Day 15, monotherapy 75 mg, n=4
  AUC0–τ, Geo mean (GeoCV%): 9440 (39.6) ng∙h/mL
  Accumulation ratio (Cmax), Geo mean (GeoCV%): 3.02 (3.2)
  Cmax, GeoMean (GeoCV%): 533 (47.5) ng/mL
  tmax, median (range): 4.05 (4.03–5.12) hours
[17]
  AUC0–τ, Geo mean (GeoCV%): 15,500 (46.8) ng∙h/mL
  Accumulation ratio (Cmax), Geo mean (GeoCV%): 3.38 (55.6)
  Cmax, GeoMean (GeoCV%): 831 (43.3) ng/mL
  tmax, median (range): 6.05 (3.00–6.07) hours
[18]
  AUC0–τ, Geo mean (GeoCV%): 23,700 (43.7) ng∙h/mL
  Accumulation ratio (Cmax), Geo mean (GeoCV%): 2.40 (36.8)
  Cmax, GeoMean (GeoCV%): 1300 (45.1) ng/mL
  tmax, median (range): 4.08 (1.93–6.00) hours
[19]
  AUC0–τ, Geo mean (GeoCV%): 28,400 (91.6) ng∙h/mL
  Accumulation ratio (Cmax), Geo mean (GeoCV%): 3.21 (63.5)
  Cmax, GeoMean (GeoCV%): 1520 (100.8) ng/mL
  tmax, median (range): 3.77 (3.50–4.05) hours
[20]
  AUC0–τ, Geo mean (GeoCV%): 31,300 (55.8) ng∙h/mL
  Accumulation ratio (Cmax), Geo mean (GeoCV%): 2.51 (77.8)
  Cmax, GeoMean (GeoCV%): 1920 (48.5) ng/mL
  tmax, median (range): 4.00 (2.95–6.10) hours
[21]
  AUC0–τ, Geo mean (GeoCV%): 39,700 (52.3) ng∙h/mL
  Accumulation ratio (Cmax), Geo mean (GeoCV%): 2.12 (67.9)
  Cmax, GeoMean (GeoCV%): 2110 (39.6) ng/mL
  tmax, median (range): 5.48 (3.57–6.08) hours
[22]
  AUC0–τ, Geo mean (GeoCV%): 41,400 (34.5) ng∙h/mL
  Accumulation ratio (Cmax), Geo mean (GeoCV%): 2.20 (97.9)
  Cmax, GeoMean (GeoCV%): 2490 (9.4) ng/mL
  tmax, median (range): 2.50 (2.00–3.00) hours
Highest doses of 240–380 mg
  Area under the curve on day 15: > 30,000 ng h/mL
In vivo
  Pharmacokinetic profile combined with tamoxifen versus monotherapy: similar
monotherapy
  Accumulation on day 15 after repeated doses: 2.12–3.38 fold
  Apparent oral clearance (CL/f): ~ 6 L/h
  Terminal half-life: ~ 30 h
monotherapy, across doses
  Median time to maximum plasma concentration (tmax): 3.08 to 6.28 h
monotherapy, single and multiple administrations
  Dose proportionality of M2698 exposure: exposure increased proportionally with dose
Versus monotherapy
  M2698 exposure in combination with trastuzumab: relatively higher
